Measurements from ChEMBL document CHEMBL4334494, “Recent advances in the targeting of human DNA ligase I as a potential new strategy for cancer treatment” (Eur J Med Chem, 2019).

Experiments:
DNA ligase 1 [1] = biological target: T1, DNA ligase 1 (Homo sapiens, UniProt P18858); experiment: Inhibition of human DNA ligase 1 at 25 uM using nicked DNA as substrate after 30 mins relative to control
HepG2 = experiment: Antiproliferative activity against human HepG2 cells at 100 uM relative to control; format: functional
A549 = experiment: Antiproliferative activity against human A549 cells at 100 uM relative to control; format: functional
HCT-116 = experiment: Antiproliferative activity against human HCT116 cells at 100 uM relative to control; format: functional
DLD-1 = experiment: Antiproliferative activity against human DLD1 cells at 100 uM relative to control; format: functional
MDA-MB-231 = experiment: Antiproliferative activity against human MDA-MB-231 cells at 100 uM relative to control; format: functional
HEK293 = experiment: Cytotoxicity against HEK293 cells at 100 uM relative to control; format: cell-based; details: human, hek293, 100 µM
DNA ligase 1 [2] = biological target: T1, DNA ligase 1; experiment: Inhibition of human DNA ligase 1 at 50 uM using 52-mer DNA/25-mer DNA/27-mer DNA as substrate by fluorescence assay relative to control
DNA ligase 1 [3] = biological target: T1, DNA ligase 1; experiment: Inhibition of human DNA ligase 1 expressed in Escherichia coli BL21DE3RP cells at 50 uM using 52-mer DNA/25-mer DNA/27-mer DNA as substrate after 30 mins by Cyanin3 dye-based fluorescence assay relative to control

T1 sequence (P18858 whole entry): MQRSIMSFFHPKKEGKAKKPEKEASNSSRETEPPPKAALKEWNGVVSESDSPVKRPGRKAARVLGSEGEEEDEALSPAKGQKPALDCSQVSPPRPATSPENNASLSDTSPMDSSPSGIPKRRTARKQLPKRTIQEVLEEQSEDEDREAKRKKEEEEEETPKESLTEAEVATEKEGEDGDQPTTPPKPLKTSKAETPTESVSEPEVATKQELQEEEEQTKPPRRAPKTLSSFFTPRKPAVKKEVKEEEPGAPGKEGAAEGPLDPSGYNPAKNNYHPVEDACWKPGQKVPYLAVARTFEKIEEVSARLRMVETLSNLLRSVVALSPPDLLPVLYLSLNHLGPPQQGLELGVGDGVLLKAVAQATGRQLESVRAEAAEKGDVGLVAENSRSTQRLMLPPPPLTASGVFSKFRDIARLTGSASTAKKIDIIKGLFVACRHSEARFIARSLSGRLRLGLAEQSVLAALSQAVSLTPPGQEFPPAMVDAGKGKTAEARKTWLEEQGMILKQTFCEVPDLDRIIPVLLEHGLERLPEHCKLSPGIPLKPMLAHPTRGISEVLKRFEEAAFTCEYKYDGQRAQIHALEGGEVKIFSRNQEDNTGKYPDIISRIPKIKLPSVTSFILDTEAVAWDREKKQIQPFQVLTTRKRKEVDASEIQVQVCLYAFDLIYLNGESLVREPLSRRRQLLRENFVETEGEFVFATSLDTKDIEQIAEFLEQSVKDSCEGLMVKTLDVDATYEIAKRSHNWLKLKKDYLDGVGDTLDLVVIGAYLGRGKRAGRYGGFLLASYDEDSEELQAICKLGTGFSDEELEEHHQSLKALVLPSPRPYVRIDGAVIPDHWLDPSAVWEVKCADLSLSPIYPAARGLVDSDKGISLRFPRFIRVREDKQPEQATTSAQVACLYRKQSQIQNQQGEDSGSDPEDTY

Row | SMILES | inhibition (DNA ligase 1 [1]) | inhibition at 100 µM (HepG2) | inhibition at 100 µM (A549) | inhibition at 100 µM (HCT-116) | inhibition at 100 µM (DLD-1) | inhibition at 100 µM (MDA-MB-231) | Activity (HEK293) | also measured
1 | COc1cc(/C=C/c2cc(=O)oc3c2ccc2c(C)cccc23)c(OC)c(OC)c1OC | < 50% |  |  |  |  |  |  | 
2 | CCOC(=O)C1=C(C)NC(=S)NC1c1cc(/C=N/NC(=S)Nc2ccc(C)cc2)c(O)c(C(C)(C)C)c1 (stereo unspecified) |  | < 80% | < 80% | < 80% | < 80% | < 80% | < 80% | 
3 | COc1ccccc1/C=C/c1cc(=O)oc2c1ccc1c(C)cccc12 | < 50% |  |  |  |  |  |  | 
4 | COc1cc([N+](=O)[O-])ccc1NC(=S)NCC12C=CC(O1)C1C(=O)N(c3c(Cl)cccc3Cl)C(=O)C12 (stereo unspecified) |  |  |  |  |  |  |  | inhibition (DNA ligase 1 [2]): 75.9%
5 | CCOC(=O)C1=C(C)NC(=O)NC1c1cc(/C=N/NC(=O)Nc2ccc(F)cc2)c(O)c(C(C)(C)C)c1 (stereo unspecified) |  | > 80% | > 80% | > 80% | > 80% | > 80% | > 80% | 
6 | CC(=O)c1ccc(NC(=O)Nc2ccc3nc(C)cc(NC(=O)c4ccco4)c3c2)cc1 |  |  |  |  |  |  |  | inhibition (DNA ligase 1 [2]): 42.4%
7 | COc1ccc(/C=C/c2cc(=O)oc3c2ccc2c(OC)cccc23)cc1OC | > 50% |  |  |  |  |  |  | 
8 | COc1ccc(OC)c(/C=C/c2cc(=O)oc3c2ccc2ccccc23)c1 | < 50% |  |  |  |  |  |  | 
9 | CCOC(=O)C1=C(C)NC(=S)NC1c1cc(/C=N/NC(=S)Nc2ccc(Cl)cc2)c(O)c(C(C)(C)C)c1 (stereo unspecified) |  | < 80% | < 80% | < 80% | < 80% | < 80% | < 80% | 
10 | CCOC(=O)C1=C(C)NC(=S)NC1c1cc(C)c(O)c(/C=N/NC(=O)Nc2ccc(Cl)cc2)c1 (stereo unspecified) |  | > 80% | > 80% | > 80% | > 80% | > 80% | > 80% | 
11 | O=C1/C(=C/c2ccc(F)cc2)CN(C(=S)Nc2ccccc2)C/C1=C\c1ccc(F)cc1 |  |  |  |  |  |  |  | inhibition (DNA ligase 1 [3]): > 75%
12 | CCOC(=O)C1=C(C)NC(=O)NC1c1cc(/C=N/NC(=O)Nc2ccc(Br)cc2)c(O)c(C(C)(C)C)c1 (stereo unspecified) |  | > 80% | > 80% | > 80% | > 80% | > 80% | > 80% | 
13 | COc1ccc(NC(=O)Nc2ccc3nc(C)cc(NC(=O)c4ccccc4Cl)c3c2)cc1 |  |  |  |  |  |  |  | inhibition (DNA ligase 1 [2]): 12.2%
14 | CCOC(=O)C1=C(C)NC(=O)NC1c1cc(C)c(O)c(/C=N/NC(N)=O)c1 (stereo unspecified) |  | < 80% | < 80% | < 80% | < 80% | < 80% | < 80% | 
15 | COc1ccc(/C=C2\CN(C(=S)NCCc3ccccc3)C/C(=C\c3ccc(OC)cc3)C2=O)cc1 |  |  |  |  |  |  |  | inhibition (DNA ligase 1 [3]): > 75%
16 | COc1cc(/C=C/c2cc(=O)oc3c2ccc2c(C)cccc23)cc(OC)c1 | > 50% |  |  |  |  |  |  | 

Row | SMILES | inhibition (DNA ligase 1 [1]) | inhibition at 100 µM (HepG2) | inhibition at 100 µM (A549) | inhibition at 100 µM (HCT-116) | inhibition at 100 µM (DLD-1) | inhibition at 100 µM (MDA-MB-231) | Activity (HEK293) | also measured
17 | COC(=O)N1CCN(CC(=O)Nc2cc(C)nc3ccc(NC(=O)Nc4ccc(Br)cc4)cc23)CC1 |  |  |  |  |  |  |  | inhibition (DNA ligase 1 [2]): 10.8%
18 | CCOC(=O)C1=C(C)NC(=S)NC1c1cc(/C=N/NC(=S)Nc2ccccc2)c(O)c(C(C)(C)C)c1 (stereo unspecified) |  | < 80% | < 80% | < 80% | < 80% | < 80% | < 80% | 
19 | CCOC(=O)C1=C(C)NC(=O)NC1c1cc(/C=N/NC(=S)Nc2ccc(Cl)cc2)c(O)c(C(C)(C)C)c1 (stereo unspecified) |  | > 80% | > 80% | > 80% | > 80% | > 80% | > 80% | 
20 | CCOC(=O)C1=C(C)NC(=O)NC1c1cc(/C=N/NC(N)=S)c(O)c(C(C)(C)C)c1 (stereo unspecified) |  | > 80% | > 80% | > 80% | > 80% | > 80% | > 80% | 
21 | Cc1cccc2c1ccc1c(/C=C/c3ccc([N+](=O)[O-])cc3)cc(=O)oc12 | > 90% |  |  |  |  |  |  | 
22 | COc1cccc2c1ccc1c(/C=C/c3ccc([N+](=O)[O-])cc3)cc(=O)oc12 | > 90% |  |  |  |  |  |  | 
23 | O=C1/C(=C/c2ccccc2F)CN(C(=S)NC(=O)c2ccccc2)C/C1=C\c1ccccc1F |  |  |  |  |  |  |  | inhibition (DNA ligase 1 [3]): > 75%
24 | COc1cccc2c1ccc1c(/C=C/c3ccccc3)cc(=O)oc12 | > 50% |  |  |  |  |  |  | 
25 | N#Cc1ccc(/C=C/c2cc(=O)oc3c2ccc2ccccc23)cc1 | < 50% |  |  |  |  |  |  | 
26 | CCOC(=O)C1=C(C)NC(=O)NC1c1cc(C)c(O)c(/C=N/NC(=S)NC)c1 (stereo unspecified) |  | > 80% | > 80% | > 80% | > 80% | > 80% | > 80% | 
27 | COc1cccc(/C=C/c2cc(=O)oc3c2ccc2ccccc23)c1 | < 50% |  |  |  |  |  |  | 
28 | Cc1cccc2c1ccc1c(/C=C/c3ccccc3)cc(=O)oc12 | < 50% |  |  |  |  |  |  | 
29 | CCOC(=O)C1=C(C)NC(=O)NC1c1cc(/C=N/NC(N)=O)c(O)c(C(C)(C)C)c1 (stereo unspecified) |  | < 80% | < 80% | < 80% | < 80% | < 80% | < 80% | 
30 | CCCCNC(=S)N1C/C(=C\c2ccc(OC)cc2)C(=O)/C(=C/c2ccc(OC)cc2)C1 |  |  |  |  |  |  |  | inhibition (DNA ligase 1 [3]): > 75%
31 | O=c1cc(/C=C/c2ccccc2)c2ccc3ccccc3c2o1 | < 50% |  |  |  |  |  |  | 
